Assay results taken from patent US7582312B2, “Methods to produce lung surfactant formulations via lyophilization and formulations and uses thereof” (Discovery Laboratories, Inc., priority 2004, dated 2009).
Values after ≈ are worked out from the molar mass of the structure shown. Where no end group is shown, it is not given here.

Columns and labels:
[1] = Individual component solubilities in t-butanol/water solutions (HPLC); conditions: about 37° C.; for solubility at 30 min: 37 °C, thermodynamic from solid
[2] = Achievable dissolution concentrations of components in 60% TBA cosolvent without NaCl; conditions: for Measured Concentration, 1: replicate 1; for Measured Concentration, 2: replicate 2; for Measured Concentration, 3: replicate 3; for Measured Concentration, AVG: room temperature, individual component
physchem = conditions: 37 °C, aqueous with cosolvent or surfactant or cyclodextrin, thermodynamic from solid
[3] = 50% t-butanol in water, aqueous with cosolvent or surfactant or cyclodextrin
[4] = 80% t-butanol in water, organic solvent or mixture
[5] = 90% t-butanol in water, organic solvent or mixture
[6] = 95% t-butanol in water, organic solvent or mixture
[7] = 100% t-butanol, organic solvent or mixture

| Solubility ([1]; 50% t-butanol in water) | Solubility ([1]; 80% t-butanol in water) | Solubility ([1]; 90% t-butanol in water) | Solubility ([1]; 95% t-butanol in water) | Solubility ([1]; 97.5% t-butanol in water) | Solubility ([1]; 99% t-butanol in water) | Solubility ([1]; 100% t-butanol) | Measured Concentration, 1 [2] | Measured Concentration, 2 [2] | Measured Concentration, 3 [2] | Measured Concentration, AVG [2] | solubility at 30 min [1, 3] | solubility at 30 min [1, 4] | solubility at 30 min [1, 5] | solubility at 30 min [1, 6] | solubility at 30 min [1, 7] | Solubility (physchem) | Compound |
| --- | --- | --- | --- | --- | --- | --- | --- | --- | --- | --- | --- | --- | --- | --- | --- | --- | --- |
| >47 mg/mL | >119 mg/mL | >160 mg/mL | 34 mg/mL (≈ 45.4 mM) | 20 mg/mL (≈ 26.7 mM) | <5 mg/mL | <5 mg/mL | 298.4 mg/mL | 283.7 mg/mL | 290.6 mg/mL | 290.9 mg/mL | – | – | – | – | – | – | CCCCCCCC/C=C\CCCCCCCC(=O)O[C@H](COC(=O)CCCCCCCCCCCCCCC)COP(=O)(O)OCC(O)CO (some centres unmarked) [POPG, palmitoyloleoyl phosphatidylglycerol] |
| – | – | – | – | – | – | – | – | – | – | – | 14 mg/mL (≈ 57.7 mM) | > 224 mg/mL | > 229 mg/mL | > 251 mg/mL | > 270 mg/mL | – | CCCCCCCCCCCCCCCCO [CA, cetyl alcohol] |
| – | – | – | – | – | – | – | – | – | – | – | – | – | – | – | – | > 67 mg/mL | KLLLLKLLLLKLLLLKLLLLK [KL4] |
| – | – | – | – | – | – | – | 34.8 mg/mL | 35.0 mg/mL | 35.2 mg/mL | 35.0 mg/mL | > 49 mg/mL | > 133 mg/mL | > 145 mg/mL | > 150 mg/mL | > 150 mg/mL | – | CCCCCCCCCCCCCCCC(=O)OC[C@H](COP(=O)([O-])OCC[N+](C)(C)C)OC(=O)CCCCCCCCCCCCCCC [DPPC, dipalmitoyl phosphatidylcholine] |
